Converted amounts (≈) assume the structure as drawn.
What was measured:
CCRF-CEM = test: In vitro inhibition of CCRF-CEM human leukemic lymphoblasts proliferation was determined; type: functional, cell-based
[1] = In vitro inhibition of P3UCLA human adenocarcinoma cell proliferation was determined in MTT proliferation assay; type: functional

IC50 (CCRF-CEM) [µg/mL]	Structure (SMILES)	IC50 [1] [µg/mL]
0.1 (≈ 0.123 µM)	CC[C@]1(O)CC2CN(CCc3c([nH]c4ccccc34)[C@@](C(=O)OC)(c3cc4c(cc3OC)N(C)C3C45CCN4CC=C[C@](CC)(C45)C(OC(C)=O)[C@]3(O)C(=O)OC)C2)C1 (stereo partly specified)	–
1.4 (≈ 1.61 µM)	CC[C@]1(O)CC2CN(CCc3c([nH]c4ccccc34)[C@@](C(=O)OC)(c3cc4c(cc3OC)N(C)C3C45CCN4CC=C[C@](CC)(C45)C(OC(=O)CCC(=O)O)[C@]3(O)C(=O)OC)C2)C1 (stereo partly specified)	0.003 (≈ 0.00345 µM)
–	CC[C@]1(O)CC2CN(CCc3c([nH]c4ccccc34)[C@@](C(=O)OC)(c3cc4c(cc3OC)N(C)C3C45CCN4CC=C[C@](CC)(C45)C(O)[C@]3(O)C(=O)OC)C2)C1 (stereo partly specified)	0.0003 (≈ 0.00039 µM)

Structure (SMILES)	IC50 (CCRF-CEM) [µg/mL]	IC50 [1] [µg/mL]
CC[C@]1(O)C[C@@H]2CN(CCc3c([nH]c4ccccc34)[C@@](C(=O)OC)(c3cc4c(cc3OC)N(C)[C@H]3[C@@](O)(C(=O)NN)[C@H](O)[C@]5(CC)C=CCN6CC[C@]43[C@@H]65)C2)C1 [DESACETYLVINBLASTINEHYDRAZIDE]	0.03 (≈ 0.039 µM)	< 0.0003

Source: ChEMBL document CHEMBL1124410, “New antitumor monoclonal antibody-vinca conjugates LY203725 and related compounds: design, preparation, and representative in vivo activity” (J Med Chem, 1989)
